Reference: ChEMBL document CHEMBL1127775, “Orally active prodrugs of quinoline-4-carboxylic acid angiotensin II receptor antagonists” (Bioorg Med Chem Lett, 1994)

Assays:
Rattus norvegicus [1] = experiment: Oral activity determined using the salt-deplete spontaneously hypertensive rat (SHR) model, expressed as percent of maximum decrease in mean arterial pressure at a oral dose of 10 umol/kg for 0-6 hr; format: functional, Artery
Rattus norvegicus [2] = experiment: Oral activity determined using the salt-deplete spontaneously hypertensive rat (SHR) model, expressed as percent of maximum decrease in mean arterial pressure at a oral dose of 10 umol/kg for 6-12 hr; format: functional, Artery
Rattus norvegicus [3] = experiment: Oral activity determined using the salt-deplete spontaneously hypertensive rat (SHR) model, expressed as percent of maximum decrease in mean arterial pressure at a oral dose of 10 umol/kg for 12-18 hr; format: functional, Artery
Rattus norvegicus [4] = experiment: Oral activity determined using the salt-deplete spontaneously hypertensive rat (SHR) model, expressed as percent of maximum decrease in mean arterial pressure at a oral dose of 10 umol/kg for 18-24 hr; format: functional, Artery
[5] = Oral bioavailability in rat; format: ADME, organism-based; details: in vivo
Rattus norvegicus [6] = experiment: Tested for fall in blood pressure on seventh day after dosing; format: functional
Rattus norvegicus [7] = experiment: Oral activity determined using the salt-deplete spontaneously hypertensive rat (SHR) model, expressed as percent of maximum decrease in mean arterial pressure at a oral dose of 30 umol/kg for 0-6 hr; format: functional, Artery
Oryctolagus cuniculus = organism: Oryctolagus cuniculus; experiment: Functional antagonism was measured by the ability of a single concentration of compound to block angiotensin II induced contractions in rabbit aortic smooth muscle strips.; details: Aorta
Rattus norvegicus [8] = experiment: Oral activity determined using the salt-deplete spontaneously hypertensive rat (SHR) model, expressed as percent of maximum decrease in mean arterial pressure at a oral dose of 30 umol/kg for 18-24 hr; format: functional, Artery
Rattus norvegicus [9] = experiment: Oral activity determined using the salt-deplete spontaneously hypertensive rat (SHR) model, expressed as percent of maximum decrease in mean arterial pressure at a oral dose of 30 umol/kg for 6-12 hr; format: functional, Artery
Rattus norvegicus [10] = experiment: Oral activity determined using the salt-deplete spontaneously hypertensive rat (SHR) model, expressed as percent of maximum decrease in mean arterial pressure at a oral dose of 30 umol/kg for 12-18 hr; format: functional, Artery

bioavailability [5] | Compound | Decrease (Rattus norvegicus [1]) | Decrease (Rattus norvegicus [2]) | Decrease (Rattus norvegicus [3]) | Decrease (Rattus norvegicus [4]) | Blood pressure (Rattus norvegicus [6]) | Decrease (Rattus norvegicus [7]) | Kb (Oryctolagus cuniculus) | Decrease (Rattus norvegicus [8]) | Decrease (Rattus norvegicus [9]) | Decrease (Rattus norvegicus [10])
39% | CC(C)C(OC(=O)C(C)(C)C)n1nnc(-c2ccccc2-c2ccc(Oc3c(C4CC4)nc4ccccc4c3C(=O)O)cc2)n1 (stereo not given) | 17% | 17% | 20% | 19% |  |  |  |  |  | 
27% | Cc1oc(=O)oc1COC(=O)c1c(Oc2ccc(-c3ccccc3-c3nn[nH]n3)cc2)c(C2CC2)nc2ccccc12 | 19% | 19% | 23% | 24% | 45 mmHg |  |  |  |  | 
 | O=C(O)c1c(Oc2ccc(-c3ccccc3-c3nn[nH]n3)cc2)c(C2CC2)nc2ccccc12 |  |  |  |  |  | 14% | 0.061 nM | 23% | 14% | 21%
 | CCC(=O)OC(OC(=O)c1c(Oc2ccc(-c3ccccc3-c3nn[nH]n3)cc2)c(C2CC2)nc2ccccc12)C(C)C (stereo not given) | 7% | 5% | 9% | 19% |  |  |  |  |  | 
 | CCOC(=O)c1c(Oc2ccc(-c3ccccc3-c3nn[nH]n3)cc2)c(C2CC2)nc2ccccc12 |  |  |  |  |  | 17% |  | 26% | 19% | 25%
 | CCCCc1nc(Cl)c(CO)n1Cc1ccc(-c2ccccc2-c2nnn[nH]2)cc1 [LOSARTAN] |  |  |  |  | 20 mmHg |  |  |  |  | 
